This note sets out measurements from patent US5874529A, “Conformationally constrained backbone cyclized peptide analogs” (Peptor Ltd., priority 1994, dated 1999).

In series [1] the target is T1, BK2 receptors (Cavia porcellus, UniProt O70526).
T1 construct: This tissue contains predominantly BK2 receptors; from tissue; host or cells: guinea-pig ileum, longitudinal muscle layer with adhering mesenteric plexus
T1 sequence (O70526 1-372): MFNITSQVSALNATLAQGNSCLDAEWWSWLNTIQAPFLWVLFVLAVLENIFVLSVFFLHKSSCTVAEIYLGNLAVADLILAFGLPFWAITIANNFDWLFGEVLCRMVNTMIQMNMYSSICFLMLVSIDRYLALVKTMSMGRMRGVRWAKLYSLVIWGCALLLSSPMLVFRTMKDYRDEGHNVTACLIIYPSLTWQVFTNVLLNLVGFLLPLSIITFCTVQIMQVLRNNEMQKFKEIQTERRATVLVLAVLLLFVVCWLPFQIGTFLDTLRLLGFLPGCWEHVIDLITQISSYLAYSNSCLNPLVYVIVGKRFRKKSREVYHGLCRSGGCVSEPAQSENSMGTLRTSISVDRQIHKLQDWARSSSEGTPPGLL
The series can be described thus: Bradykinin antagonist assay, guinea-pig ileum contraction. The protocol: The ileum of the guinea-pig was selected as the preparation for the bioassay. This tissue contains predominantly BK2 receptors. The preparation consists of the longitudinal muscle layer with the adhering mesenteric plexus. The isolated preparation was kept in Krebs solution and contractions were measured with an isometric force transducer. […] Atropine (1 μM) was always present.

Series [2] has as its target T2, Somatostatin Receptor (SSTR) Subtype SSTR 2B (Homo sapiens, UniProt P30874).
T2 construct: expressed in transfected cells; host or cells: CHO cells
The series is described as follows: Inhibition of radioactive iodinated somatostatin (SRIF-14) binding, CHO cells expressing SSTR 2B. As to conditions: read-out: percent inhibition of radioactive iodinated somatostatin (SRIF-14) binding, SSTR 2B; for inhibition at 1 µM: Conc. 10^-6 M; for inhibition at 0.1 µM: Conc. 10^-7 M; for inhibition at 0.01 µM: Conc. 10^-8 M. From the text: (§1) The values presented are percent inhibition of radioactive iodinated somatostatin (SRIF-14) binding.

Series [3] has as its target T3, Somatostatin Receptor (SSTR) Subtype SSTR 5 (Homo sapiens, UniProt P35346).
T3 construct: expressed in transfected cells; host or cells: CHO cells
The series can be described thus: Inhibition of radioactive iodinated somatostatin (SRIF-14) binding, CHO cells expressing SSTR 5. The settings on record: read-out: percent inhibition of radioactive iodinated somatostatin (SRIF-14) binding, SSTR 5; for inhibition at 1 µM: Conc. 10^-6 M; for inhibition at 0.1 µM: Conc. 10^-7 M; for inhibition at 0.01 µM: Conc. 10^-8 M.
From the text: as §1

Series [4] is described as follows: Lack of toxicity of cyclized peptide analogs in rats. The series is classed as in vivo. The source says:
These two doses are several orders of magnitude higher than those needed to elicit the desired endocrine effect. The peptides dissolved in saline produced no untoward side effects on the central nervous system, cardiovascular system, body temperature, nor on the periphery of the animals.

The target of series [5] is T4, bradykinin receptors (Rattus norvegicus, UniProt P25023).
T4 construct: PC 12 cells that express bradykinin receptors; endogenous in cells; host or cells: PC12 cells
T4 sequence (P25023 1-396): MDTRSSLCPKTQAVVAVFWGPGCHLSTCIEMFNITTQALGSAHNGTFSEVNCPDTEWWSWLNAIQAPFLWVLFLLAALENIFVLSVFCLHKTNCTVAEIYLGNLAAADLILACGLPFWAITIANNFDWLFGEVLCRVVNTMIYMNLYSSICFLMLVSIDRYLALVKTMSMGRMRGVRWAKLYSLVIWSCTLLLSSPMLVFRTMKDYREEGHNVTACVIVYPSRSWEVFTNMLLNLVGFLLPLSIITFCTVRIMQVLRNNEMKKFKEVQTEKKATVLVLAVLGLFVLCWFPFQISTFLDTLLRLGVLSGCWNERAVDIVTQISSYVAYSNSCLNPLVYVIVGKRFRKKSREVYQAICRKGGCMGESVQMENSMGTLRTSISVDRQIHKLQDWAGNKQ
The series is described as follows: Bradykinin antagonist assay, (3H)dopamine release from PC 12 cells. In kind it is cell-based. The settings on record: At 10^-6 M; (3H)dopamine release from PC 12 cells stimulated by bradykinin. How it is done:
Novel backbone cyclized peptide analogs of the present invention were assayed in vitro for bradykinin antagonist activity by protection of (^3 H) dopamine release from PC 12 cells that express bradykinin receptors. PC12 cells were grown in Dulbecco Modified Eagle's medium with high glucose, supplemented with 10% horse serum, 5% fetal calf serum, 130 units/ml penicillin and 0.1 mg/ml streptomycin. For experiments, cells were removed from the medium using 1 mmole EDTA and replated on collagen coated-12-well plates and assayed 24 hr later. Release of (^3 H)dopamine was determined as follows: cells were incubated for 1.5 hr at 37° C. with 0.5 ml of growth medium and […] (^3 H)DA (41 Ci/mmole) and […] pargyline followed by extensive washing with medium (3×1 ml) and release buffer consisting of (mM): 130 NaCl; 5 KCl; 25 NaHCO3; 1 NaH2 PO4; 10 glucose and 1.8 CaCl2. In a typical experiment, cells were incubated with 0.5 ml buffer for 5 consecutive incubation periods of 3 min each at 37° C. Spontaneous (^3 H)DA release was measured by collecting the medium released by the cells successively for the first 3 min period. Antagonists were added to the cells 3 min prior to stimulation (at the second period), and stimulation of (^3 H)DA release by 100 nmole of bradykinin are monitored during the 3 period by 60 mmole KCl. The remaining of the (^3 H)DA was extracted from the cells by over night incubation with 0.5 ml 0.1N HCl. (^3 H)DA release during each 3 min period was expressed as a % of the total (^3 H)DA content of the cells. Net evoked release was calculated from (^3 H)DA release during stimulation period after subtracting basal (^3 H)DA release in the preceding baseline period if not indicated otherwise.

Series [6] is described as follows: In vitro biostability in human serum. The series is classed as in vitro ADME. As to conditions: 37° C., HPLC determination of peptide degradation over time, compared with PTR 3001, octreotide, SRIF. The protocol:
The in vitro biostability of a SST cyclic peptide analog, PTR 3002, was measured in human serum, and was compared to the same sequence in a non-cyclic peptide analog (PTR 3001), to octreotide (Sandostatin), and to native somatostatin (SRIF). […] The assay was based on HPLC determination of peptide degradation as a function of time at 37° C.

Where [7] appears, read: At 10^-6 M, guinea-pig ileum, BK 2×10^-8 M, atropine 1 μM present.

Read-outs that look alike come from different tables or passages of the source. Numbered stars: 1 amine (or outer) side, 2 acyl side, 3 side chain; on linkers, the order of the positions; unused ones are H or OH. Bridge positions count the residues as written; N and C are the ends. Square brackets hold non-standard residues; d marks the D form. Peptide text beside a SMILES is read from it. NGly(3-aminopropyl) = O=C(CN(CCCN[*:3])[*:1])[*:2]; N(2-Aminoethyl)Gly = O=C(CN(CCN[*:3])[*:1])[*:2]; N(CH2CH2CO)Gly = O=C(CN(CCC(=O)[*:3])[*:1])[*:2]

T2 sequence (P30874 1-356 isoform P30874-2): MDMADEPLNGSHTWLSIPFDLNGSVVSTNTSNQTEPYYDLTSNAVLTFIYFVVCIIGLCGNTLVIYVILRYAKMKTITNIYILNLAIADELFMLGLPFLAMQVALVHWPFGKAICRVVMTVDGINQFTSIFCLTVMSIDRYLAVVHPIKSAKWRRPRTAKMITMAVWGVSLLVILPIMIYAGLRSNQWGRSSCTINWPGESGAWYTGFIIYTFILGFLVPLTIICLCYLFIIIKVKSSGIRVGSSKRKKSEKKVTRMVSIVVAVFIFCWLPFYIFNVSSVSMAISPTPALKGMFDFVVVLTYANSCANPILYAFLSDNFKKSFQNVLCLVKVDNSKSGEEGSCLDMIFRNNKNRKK
T3 sequence (P35346 whole entry): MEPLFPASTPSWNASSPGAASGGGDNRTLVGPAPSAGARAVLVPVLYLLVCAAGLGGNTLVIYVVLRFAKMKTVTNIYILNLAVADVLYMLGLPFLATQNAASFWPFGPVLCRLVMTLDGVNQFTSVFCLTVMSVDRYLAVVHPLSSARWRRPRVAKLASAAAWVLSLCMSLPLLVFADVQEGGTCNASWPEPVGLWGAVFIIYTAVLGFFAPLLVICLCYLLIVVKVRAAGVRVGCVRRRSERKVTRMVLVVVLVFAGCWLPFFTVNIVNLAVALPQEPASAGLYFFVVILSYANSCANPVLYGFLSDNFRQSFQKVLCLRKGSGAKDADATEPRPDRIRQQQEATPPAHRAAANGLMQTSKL

For the compound “H-D-Arg-Arg-cyclo(N^α (1-(4-propanoyl))Gly-Hyp-Phe-N^α (3-amido-propylene)Gly)-Ser-D-Phe-Phe-Arc-OH [Example 3]”, the “inhibition of BK activity” value in series [1] (setting [7]) was 10%.
As usually defined, the inhibition is the relative decrease from the control value, in per cent. Consider `C[C@@H](O)[C@H](NC(=O)CN1CCCNC(=O)CCN(C(=O)[C@H](N)Cc2ccccc2)CC(=O)N[C@@H](Cc2ccccc2)C(=O)N[C@H](Cc2c[nH]c3ccccc23)C(=O)N[C@@H](CCCCN)C(=O)N[C@@H]([C@@H](C)O)C1=O)C(N)=O` [PTR 3007] (H-[dF][N(CH2CH2CO)Gly]F[dW]KT[NGly(3-aminopropyl)]T-NH2; lactam 2-7), for which, in series [2], the inhibition at 1 µM was determined as 0%, the inhibition at 0.1 µM was 0% and the inhibition at 0.01 µM was 0%. For the same compound, in series [3], the inhibition at 1 µM was found to be 19%, the inhibition at 0.1 µM amounted to 9% and the inhibition at 0.01 µM stood at 0%. Further, in series [4] (rats observed for 4 hours post administration), the “respiratory disturbances, stereotyped behavior, muscle tone” value is recorded as “produced no respiratory disturbances, did not result in the appearance of stereotyped behavior, or produce any changes in muscle tone”. The tolerability result in series [4] (rats, 1.5 mg/kg, single intraperitoneal application) was “well tolerated”.
Consider “Ada-(D)Arg-Arg-cyclo(N^α (1-(6-aminohexylene)Gly-Hyp-Phe-D-Asp)-D-Phe-Phe-Arg-OH [Example 1]”, for which the “inhibition of BK activity” value in series [5] was determined as 30%; in series [1], 24%.
In the case of “H-D-Arg-Arg-cyclo(N^α (4-propanoyl)Gly-Hyp-Phe-N^α (3-amido-propyl)-S-Phe)-Ser-D-Phe-Phe-Arg-OH [Example 4]”, the “inhibition of BK activity” value in series [5] and in series [1] (setting [7]) was 17% each time.
Turning to “Ada-D-Arg-Arg-N^α (6-acetamidohexylene)Gly-Hyp-Phe-D-Asp(NH-Me)-D-Phe-Phe-Arg-OH [Example 2]”, the “inhibition of BK activity” value in series [5] and in series [1] (setting [7]) was 0% in each case.
Consider `C[C@@H](O)[C@H](NC(=O)CNC(=O)[C@@H](NC(=O)[C@H](CCCCN)NC(=O)[C@@H](Cc1c[nH]c2ccccc12)NC(=O)[C@H](Cc1ccccc1)NC(=O)CNC(=O)[C@H](N)Cc1ccccc1)[C@@H](C)O)C(N)=O` [PTR 3003] (H-[dF]GF[dW]KTGT-NH2), for which, in series [2], the inhibition at 1 µM was 16%, the inhibition at 0.1 µM is 3% and the inhibition at 0.01 µM is 0%. In addition, in series [3], the inhibition at 1 µM was determined as 55%, the inhibition at 0.1 µM stood at 20% and the inhibition at 0.01 µM came to 0%.
For orientation: EC50 means the concentration needed to bring the measured effect to its halfway point. High values mean a less potent agent, low ones a more potent agent. The compound `NC(N)=NCCC[C@H](NC(=O)[C@H](Cc1ccccc1)NC(=O)[C@@H]1CCCN1C(=O)[C@H](CO)NC(=O)[C@H](Cc1ccccc1)NC(=O)CNC(=O)[C@@H]1CCCN1C(=O)[C@@H]1CCCN1C(=O)[C@@H](N)CCCN=C(N)N)C(=O)O` [BK, Arg^1 -Pro^2 -Pro^3 -Gly^4 -Phe^5 -Ser^6 -Pro^7 -Phe^8 -Arg^9, reference compound] (H-RPPGFSPFR-OH) registered a half-maximal effective concentration (EC50) in series [1] of 20 nM.
Take `C[C@@H](O)[C@H](NC(=O)CN1CCNC(=O)CCN(C(=O)[C@H](N)Cc2ccccc2)CC(=O)N[C@@H](Cc2ccccc2)C(=O)N[C@H](Cc2c[nH]c3ccccc23)C(=O)N[C@@H](CCCCN)C(=O)N[C@@H]([C@@H](C)O)C1=O)C(N)=O` [PTR 3002] (H-[dF][N(CH2CH2CO)Gly]F[dW]KT[N(2-Aminoethyl)Gly]T-NH2; lactam 2-7): in series [6], the “in vitro biostability in human serum” value was “as stable as octreotide, is more stable than the corresponding non-cyclic structure, and is much more stable than SRIF”.
Turning to `C[C@@H](O)[C@H](NC(=O)CN1CCC(=O)NCCCN(C(=O)[C@H](N)Cc2ccccc2)CC(=O)N[C@@H](Cc2ccccc2)C(=O)N[C@H](Cc2c[nH]c3ccccc23)C(=O)N[C@@H](CCCCN)C(=O)N[C@@H]([C@@H](C)O)C1=O)C(N)=O` [PTR 3010] (H-[dF][NGly(3-aminopropyl)]F[dW]KT[N(CH2CH2CO)Gly]T-NH2; lactam 2-7), in series [2], the inhibition at 1 µM stood at 0%, the inhibition at 0.1 µM was determined as 0% and the inhibition at 0.01 µM was determined as 0%. Besides, in series [3], the inhibition at 1 µM stood at 63%, the inhibition at 0.1 µM came to 26% and the inhibition at 0.01 µM came out at 9%.
In the case of `C[C@@H](O)[C@H](NC(=O)CN1CCCNC(=O)CN(C(=O)[C@H](N)Cc2ccccc2)CC(=O)N[C@@H](Cc2ccccc2)C(=O)N[C@H](Cc2c[nH]c3ccccc23)C(=O)N[C@@H](CCCCN)C(=O)N[C@@H]([C@@H](C)O)C1=O)C(N)=O` [PTR 3004], in series [2], the inhibition at 1 µM came out at 0%, the inhibition at 0.1 µM was found to be 0% and the inhibition at 0.01 µM worked out at 0%. Besides, in series [3], the inhibition at 1 µM turned out to be 14%, the inhibition at 0.1 µM came to 0% and the inhibition at 0.01 µM is 0%.
